Calls of active or inactive are those of the source.
Assays:
[1] = biological target: Signal transducer and activator of transcription 3 (Homo sapiens, UniProt P40763); assay: STAT3 inhibitors, late-stage profile, late-stage follow-up, cell-based, STAT1 panel, qPCR, cytotoxicity, panel member STAT3 Inhibition (AID 2078)
[2] = biological target: Signal transducer and activator of transcription 1-alpha/beta (Homo sapiens, UniProt P42224); assay: STAT3 inhibitors, late-stage profile, late-stage follow-up, cell-based, STAT1 panel, qPCR, cytotoxicity, panel member STAT1 Inhibition (AID 2078)
[3] = biological target: T1, G-protein coupled receptor 35 (Homo sapiens, UniProt Q9HC97); assay: SAR analysis of Agonists of the GPR35 Receptor using an Image-Based Assay - Set 4. [Related pubchem assays (depositor defined):AID2013, AID2026]; assay type: functional
Cannabinoid receptor 1 [4] = biological target: T2, Cannabinoid receptor 1 (Homo sapiens, UniProt P21554); assay: SAR analysis of agonists of the Cannabinoid Receptor 1 using an Image-Based Assay - Set 4. [Related pubchem assays (depositor defined):AID2013, AID2026]; assay type: functional
[5] = biological target: T1, G-protein coupled receptor 35; assay: SAR analysis of Antagonists of the GPR35 Receptor using an Image-Based Assay - Set 6. [Related pubchem assays (depositor defined):AID2013, AID2026]; assay type: functional
Cannabinoid receptor 1 [6] = biological target: T2, Cannabinoid receptor 1; assay: SAR analysis of antagonists of the Cannabinoid Receptor 1 using an Image-Based Assay - Set 4. [Related pubchem assays (depositor defined):AID2013, AID2026]; assay type: functional
[7] = biological target: G-protein coupled receptor 55 (Homo sapiens, UniProt Q9Y2T6); assay: SAR Analysis of Selective Antagonists of GPR55 using an Image-Based Assay - Set 4. [Related pubchem assays (depositor defined):AID2013, AID2026]; assay type: functional;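 note: antagonism of response to 5 µM lysophosphatidylinositol agonist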
Cannabinoid receptor 2 [8] = biological target: T3, Cannabinoid receptor 2 (Homo sapiens, UniProt P34972); assay: SAR analysis of antagonists of the Cannabinoid Receptor 2 using an Image-Based Assay - Set 3. [Related pubchem assays (depositor defined):AID2013, AID2026]; assay type: functional
Cannabinoid receptor 2 [9] = biological target: T3, Cannabinoid receptor 2; assay: SAR analysis of agonists of the Cannabinoid Receptor 2 using an Image-Based Assay - Set 3. [Related pubchem assays (depositor defined):AID2013, AID2026]; assay type: functional
Ion channel NompC = Ion channel NompC (Danio rerio, UniProt Q7T1G6); assay: Dose response cell-based high-throughput screening assay for agonists of the transient receptor potential channel N1 (TRPN1). [Related pubchem assays (depositor defined):AID1424, AID1448]; assay type: functional
Mucolipin-3 = biological target: T4, Mucolipin-3 (Homo sapiens, UniProt Q8TDD5); assay: Fluorescence counterscreen assay for […] agonists: dose response cell-based high-throughput screening assay to identify agonists of the transient receptor potential channel ML3 (TRPML3). [Related pubchem assays: 1424, 1448 ]; assay type: functional
T4 sequence (Q8TDD5 whole entry): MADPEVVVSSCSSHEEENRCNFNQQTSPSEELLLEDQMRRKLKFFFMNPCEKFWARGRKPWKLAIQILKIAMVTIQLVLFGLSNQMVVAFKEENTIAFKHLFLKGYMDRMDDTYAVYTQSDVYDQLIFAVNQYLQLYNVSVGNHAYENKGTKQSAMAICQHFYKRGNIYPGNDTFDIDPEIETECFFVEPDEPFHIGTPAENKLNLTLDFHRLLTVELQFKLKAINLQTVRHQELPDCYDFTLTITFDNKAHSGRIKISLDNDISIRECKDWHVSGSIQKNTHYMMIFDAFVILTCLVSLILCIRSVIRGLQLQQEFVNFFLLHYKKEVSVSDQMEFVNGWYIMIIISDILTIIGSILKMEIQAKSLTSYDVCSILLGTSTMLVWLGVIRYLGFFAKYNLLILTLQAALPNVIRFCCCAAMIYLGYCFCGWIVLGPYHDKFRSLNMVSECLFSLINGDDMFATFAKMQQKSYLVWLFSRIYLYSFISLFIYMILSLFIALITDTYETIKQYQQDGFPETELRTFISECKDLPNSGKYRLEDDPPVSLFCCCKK

[10] = biological target: Glyceraldehyde-3-phosphate dehydrogenase (Homo sapiens, UniProt P04406)
[11] = biological target: Alkaline phosphatase, placental type (Homo sapiens, UniProt P05187); assay: PLAP enzyme inhibitors, confirmation, biochemical, luminescence (AID 1512); assay type: functional
Hexokinase = Hexokinase (Trypanosoma brucei, UniProt Q38C41); assay: Confirmation assay for inhibitors of Trypanosoma brucei hexokinase 1-Analogue-first series. [Related pubchem assays (depositor defined):AID1430, AID1632, AID2516, AID2560, AID2579, AID2600, AID449725, AID492951]; assay type: functional
[12] = biological target: Sphingosine 1-phosphate receptor 1 (Homo sapiens, UniProt P21453); assay: Fluorescence-based counterscreen assay for S1P4 agonists: Cell-based dose response high throughput screening assay to identify agonists of the Sphingosine 1-Phosphate Receptor 1 (S1P1). [Related pubchem assays (depositor defined):AID1509, AID1523, AID1801, AID463107, AID463118, AID463119, AID463122, AID463123, AID463129, AID463225, AID504400, AID504460]; assay type: functional
[13] = biological target: T5, Sphingosine 1-phosphate receptor 4 (Homo sapiens, UniProt O95977); assay: Fluorescence dose response cell-based high throughput screening assay for agonists of the Sphingosine 1-Phosphate Receptor 4 (S1P4). [Related pubchem assays: 1509 (Primary screen.), 1523 (Confirmation screen in triplicates.)]; assay type: functional
T5 sequence (O95977 whole entry): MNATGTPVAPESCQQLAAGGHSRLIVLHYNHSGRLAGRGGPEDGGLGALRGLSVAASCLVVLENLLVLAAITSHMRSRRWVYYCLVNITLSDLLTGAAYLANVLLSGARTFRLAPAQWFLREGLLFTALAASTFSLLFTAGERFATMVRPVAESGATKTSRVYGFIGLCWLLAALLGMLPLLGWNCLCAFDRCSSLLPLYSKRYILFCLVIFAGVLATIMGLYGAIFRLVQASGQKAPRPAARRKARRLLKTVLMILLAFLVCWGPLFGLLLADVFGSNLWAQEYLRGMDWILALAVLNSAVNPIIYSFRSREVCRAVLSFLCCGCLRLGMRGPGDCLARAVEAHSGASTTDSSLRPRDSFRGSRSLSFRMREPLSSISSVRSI

[14] = biological target: T6, Runt-related transcription factor 1/Core-binding factor subunit beta (Homo sapiens, UniProt Q01196+Q13951); assay: inhibitors of RUNX1 Runt–CBFb-SMMHC binding, primary screen, biochemical, FRET, Cerulean-Runt, Venus-CBFb-SMMHC, uHTS (AID 1434); assay type: protein assay;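 note: partner is the CBFb-SMMHC leukemia fusion protein rather than wild-type CBFb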
[15] = biological target: T6, Runt-related transcription factor 1/Core-binding factor subunit beta; assay: inhibitors of RUNX1 Runt–CBFb-SMMHC binding, biochemical, TR-FRET (AID 1438); assay type: protein assay
[16] = biological target: T5, Sphingosine 1-phosphate receptor 4; assay: Late-stage fluorescence dose response cell-based assay to identify agonists of the Sphingosine 1-Phosphate Receptor 4 (S1P4): purchased compounds EC50. [Related pubchem assays (depositor defined):AID1509, AID1523, AID1563, AID1686, AID1701, AID1801]; assay type: functional
[17] = HEp-2 cell cytotoxicity, dose response, cytotoxicity control for RSV inhibitor project, HTS (AID 2410); assay type: functional; conditions: human respiratory syncytial virus
BJ [18] = assay: cytotoxicity toward BJ-TERT fibroblasts, dose response, cell-based, RAS-independent, luminescence (AID 1933); assay type: functional; conditions: Homo sapiens
BJ [19] = assay: cells; assay type: functional, cell-based; conditions: Homo sapiens
[20] = growth suppression of PTEN-null colon cells, dose response, cell-based, HCT116 PTEN knockout (AID 1047); assay type: functional;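 note: HCT116 colon tumor cells with PTEN knocked out; cells exposed to compound for 60 hours before readout; potency for loss of cell viability measured by luminescence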
[21] = growth suppression of beta-catenin-knockout colon cells, dose response, cell-based, HCT116, human colon tumor (AID 1045); assay type: functional;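 note: HCT116 colon tumor cells with beta catenin knocked out; cells exposed to compound for 60 hours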
BJ [22] = assay: cytotoxicity toward BJ-TERT-LT-ST fibroblasts, dose response, cell-based, RAS-independent, luminescence (AID 1935); assay type: functional; conditions: Homo sapiens;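 note: BJ fibroblasts immortalized with TERT plus LT and ST oncogenes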
[23] = cytotoxicity toward DRD oncogenic fibroblasts, dose response, cell-based, non-viral oncogenic, luminescence (AID 1934); assay type: functional; conditions: Homo sapiens
CAAX prenyl protease 2 = CAAX prenyl protease 2 (Saccharomyces cerevisiae S288c, UniProt Q03530); assay type: biochemical
[24] = biological target: T7, Replicative DNA helicase DnaB (Mycobacterium tuberculosis, UniProt P9WMR3); assay: DnaB intein splicing inhibitors, dose response, biochemical, cell-free fluorescence (AID 449749); assay type: functional
T7 sequence (P9WMR3 whole entry): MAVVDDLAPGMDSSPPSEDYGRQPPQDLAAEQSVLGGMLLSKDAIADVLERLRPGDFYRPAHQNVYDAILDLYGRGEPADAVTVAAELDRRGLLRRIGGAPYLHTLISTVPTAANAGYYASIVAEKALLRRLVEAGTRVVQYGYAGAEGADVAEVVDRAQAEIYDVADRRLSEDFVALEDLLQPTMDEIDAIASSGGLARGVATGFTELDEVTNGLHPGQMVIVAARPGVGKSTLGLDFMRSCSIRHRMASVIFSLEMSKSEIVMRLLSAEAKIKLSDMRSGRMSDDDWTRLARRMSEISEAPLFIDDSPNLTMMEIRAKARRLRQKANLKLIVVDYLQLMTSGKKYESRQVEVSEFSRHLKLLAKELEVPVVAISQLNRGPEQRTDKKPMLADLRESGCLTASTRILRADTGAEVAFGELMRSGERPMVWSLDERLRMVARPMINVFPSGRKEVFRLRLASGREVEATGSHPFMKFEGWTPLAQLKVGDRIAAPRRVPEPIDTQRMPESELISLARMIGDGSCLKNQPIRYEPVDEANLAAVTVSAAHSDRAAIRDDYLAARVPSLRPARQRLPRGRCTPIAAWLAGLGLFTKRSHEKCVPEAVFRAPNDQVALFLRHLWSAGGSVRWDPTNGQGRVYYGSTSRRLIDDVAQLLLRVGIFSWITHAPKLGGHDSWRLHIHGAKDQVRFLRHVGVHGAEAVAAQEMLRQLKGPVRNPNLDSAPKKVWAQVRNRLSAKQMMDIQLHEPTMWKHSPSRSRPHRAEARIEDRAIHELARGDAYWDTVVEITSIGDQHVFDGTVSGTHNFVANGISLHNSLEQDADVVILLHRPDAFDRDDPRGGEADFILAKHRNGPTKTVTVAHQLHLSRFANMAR

Protein RecA = biological target: T8, Protein RecA (Mycobacterium tuberculosis, UniProt P9WHJ3); assay: Fluorescence Cell-Free Homogeneous Dose Retest to Identify Inhibitors of RecA-Intein Splicing Activity. [Related pubchem assays (depositor defined):AID2097, AID2223, AID489010, AID492950]; assay type: functional
T8 sequence (P9WHJ3 whole entry): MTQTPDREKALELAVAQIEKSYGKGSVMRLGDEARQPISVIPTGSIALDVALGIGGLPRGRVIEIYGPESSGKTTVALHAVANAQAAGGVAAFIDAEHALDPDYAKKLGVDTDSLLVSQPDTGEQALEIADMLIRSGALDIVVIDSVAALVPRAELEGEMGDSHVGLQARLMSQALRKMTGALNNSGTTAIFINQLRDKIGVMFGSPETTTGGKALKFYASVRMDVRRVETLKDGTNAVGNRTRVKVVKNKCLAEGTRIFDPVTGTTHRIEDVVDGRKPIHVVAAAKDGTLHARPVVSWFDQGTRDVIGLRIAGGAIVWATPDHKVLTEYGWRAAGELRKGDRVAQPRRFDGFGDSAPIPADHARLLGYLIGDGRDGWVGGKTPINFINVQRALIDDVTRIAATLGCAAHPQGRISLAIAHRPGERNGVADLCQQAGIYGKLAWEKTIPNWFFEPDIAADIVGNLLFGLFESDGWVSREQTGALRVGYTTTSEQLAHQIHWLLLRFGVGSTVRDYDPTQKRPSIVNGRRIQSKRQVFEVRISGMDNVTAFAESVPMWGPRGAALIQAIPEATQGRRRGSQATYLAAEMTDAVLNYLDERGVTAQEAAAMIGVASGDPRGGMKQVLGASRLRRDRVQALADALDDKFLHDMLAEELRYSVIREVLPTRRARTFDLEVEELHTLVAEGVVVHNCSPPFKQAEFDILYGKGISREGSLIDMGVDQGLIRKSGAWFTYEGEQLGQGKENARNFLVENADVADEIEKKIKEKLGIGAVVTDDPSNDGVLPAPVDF

T2 sequence (P21554 whole entry): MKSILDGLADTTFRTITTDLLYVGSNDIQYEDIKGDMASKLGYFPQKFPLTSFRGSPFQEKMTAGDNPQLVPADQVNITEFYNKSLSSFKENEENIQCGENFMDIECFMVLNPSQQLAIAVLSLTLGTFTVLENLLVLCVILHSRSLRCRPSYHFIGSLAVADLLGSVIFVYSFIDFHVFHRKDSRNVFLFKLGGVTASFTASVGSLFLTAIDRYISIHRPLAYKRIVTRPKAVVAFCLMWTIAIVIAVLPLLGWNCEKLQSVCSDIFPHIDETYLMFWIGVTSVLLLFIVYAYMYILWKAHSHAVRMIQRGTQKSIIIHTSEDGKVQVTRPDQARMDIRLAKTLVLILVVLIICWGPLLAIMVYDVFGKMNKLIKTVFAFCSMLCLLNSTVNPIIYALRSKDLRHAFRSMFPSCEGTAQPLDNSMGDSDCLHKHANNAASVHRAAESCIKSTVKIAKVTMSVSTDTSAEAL
T1 sequence (Q9HC97 whole entry): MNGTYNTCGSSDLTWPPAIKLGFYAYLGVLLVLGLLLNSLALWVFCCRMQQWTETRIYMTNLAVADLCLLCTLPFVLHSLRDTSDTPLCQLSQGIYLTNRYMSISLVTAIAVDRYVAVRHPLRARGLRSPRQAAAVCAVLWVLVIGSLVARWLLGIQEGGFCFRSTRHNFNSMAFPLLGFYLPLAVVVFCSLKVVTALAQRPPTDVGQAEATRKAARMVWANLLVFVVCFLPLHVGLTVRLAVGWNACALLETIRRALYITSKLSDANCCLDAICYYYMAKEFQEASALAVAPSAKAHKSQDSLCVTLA
T3 sequence (P34972 whole entry): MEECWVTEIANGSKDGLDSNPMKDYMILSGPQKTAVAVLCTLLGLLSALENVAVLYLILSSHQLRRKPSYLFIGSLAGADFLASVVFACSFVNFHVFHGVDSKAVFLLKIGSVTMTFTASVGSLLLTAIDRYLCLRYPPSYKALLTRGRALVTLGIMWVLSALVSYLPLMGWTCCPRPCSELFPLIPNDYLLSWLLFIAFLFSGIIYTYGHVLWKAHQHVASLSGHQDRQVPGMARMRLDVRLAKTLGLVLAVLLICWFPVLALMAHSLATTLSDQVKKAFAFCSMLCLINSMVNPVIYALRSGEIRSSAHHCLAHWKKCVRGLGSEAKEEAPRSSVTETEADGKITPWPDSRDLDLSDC
T6 sequence (Q01196 whole entry, the tested form may be a part): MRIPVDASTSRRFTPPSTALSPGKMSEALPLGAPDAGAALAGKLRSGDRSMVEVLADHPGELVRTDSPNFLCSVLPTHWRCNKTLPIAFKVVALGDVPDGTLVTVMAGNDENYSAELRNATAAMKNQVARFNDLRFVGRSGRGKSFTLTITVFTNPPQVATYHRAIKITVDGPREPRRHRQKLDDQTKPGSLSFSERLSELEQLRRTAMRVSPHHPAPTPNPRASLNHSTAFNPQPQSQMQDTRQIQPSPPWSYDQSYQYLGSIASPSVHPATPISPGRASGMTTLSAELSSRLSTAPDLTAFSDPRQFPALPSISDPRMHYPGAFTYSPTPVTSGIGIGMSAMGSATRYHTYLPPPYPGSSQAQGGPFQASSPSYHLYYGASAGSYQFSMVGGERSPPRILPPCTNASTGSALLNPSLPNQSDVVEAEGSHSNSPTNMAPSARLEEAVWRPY
T6 sequence (Q13951 whole entry, the tested form may be a part): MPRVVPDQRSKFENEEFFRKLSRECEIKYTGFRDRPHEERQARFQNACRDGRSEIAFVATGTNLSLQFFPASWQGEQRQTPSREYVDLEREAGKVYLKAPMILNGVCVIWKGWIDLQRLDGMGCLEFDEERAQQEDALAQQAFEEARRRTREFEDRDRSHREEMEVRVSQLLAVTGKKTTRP
Sequence of Hexokinase (Q38C41 whole entry): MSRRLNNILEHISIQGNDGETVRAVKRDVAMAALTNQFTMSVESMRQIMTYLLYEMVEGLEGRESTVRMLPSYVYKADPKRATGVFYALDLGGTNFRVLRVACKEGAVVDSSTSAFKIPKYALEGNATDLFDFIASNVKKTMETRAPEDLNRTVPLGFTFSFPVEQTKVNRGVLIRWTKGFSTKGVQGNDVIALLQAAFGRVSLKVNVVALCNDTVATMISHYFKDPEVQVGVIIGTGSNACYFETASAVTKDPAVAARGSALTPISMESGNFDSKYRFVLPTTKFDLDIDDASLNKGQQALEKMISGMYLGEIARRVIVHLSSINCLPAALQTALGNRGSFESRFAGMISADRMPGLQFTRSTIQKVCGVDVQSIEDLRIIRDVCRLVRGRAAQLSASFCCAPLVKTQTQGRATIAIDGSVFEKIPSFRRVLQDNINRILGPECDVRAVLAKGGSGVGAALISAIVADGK
Sequence of CAAX prenyl protease 2 (Q03530 whole entry): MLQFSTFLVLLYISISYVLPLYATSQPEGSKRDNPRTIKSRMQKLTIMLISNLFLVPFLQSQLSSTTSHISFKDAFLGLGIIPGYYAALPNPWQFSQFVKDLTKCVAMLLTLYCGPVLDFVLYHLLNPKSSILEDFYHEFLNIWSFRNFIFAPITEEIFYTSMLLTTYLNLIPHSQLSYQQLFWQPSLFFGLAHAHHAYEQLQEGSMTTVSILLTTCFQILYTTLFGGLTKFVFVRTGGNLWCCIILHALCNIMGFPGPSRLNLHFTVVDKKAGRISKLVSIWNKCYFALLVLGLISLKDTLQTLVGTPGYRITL
Sequence of Ion channel NompC (Q7T1G6 whole entry): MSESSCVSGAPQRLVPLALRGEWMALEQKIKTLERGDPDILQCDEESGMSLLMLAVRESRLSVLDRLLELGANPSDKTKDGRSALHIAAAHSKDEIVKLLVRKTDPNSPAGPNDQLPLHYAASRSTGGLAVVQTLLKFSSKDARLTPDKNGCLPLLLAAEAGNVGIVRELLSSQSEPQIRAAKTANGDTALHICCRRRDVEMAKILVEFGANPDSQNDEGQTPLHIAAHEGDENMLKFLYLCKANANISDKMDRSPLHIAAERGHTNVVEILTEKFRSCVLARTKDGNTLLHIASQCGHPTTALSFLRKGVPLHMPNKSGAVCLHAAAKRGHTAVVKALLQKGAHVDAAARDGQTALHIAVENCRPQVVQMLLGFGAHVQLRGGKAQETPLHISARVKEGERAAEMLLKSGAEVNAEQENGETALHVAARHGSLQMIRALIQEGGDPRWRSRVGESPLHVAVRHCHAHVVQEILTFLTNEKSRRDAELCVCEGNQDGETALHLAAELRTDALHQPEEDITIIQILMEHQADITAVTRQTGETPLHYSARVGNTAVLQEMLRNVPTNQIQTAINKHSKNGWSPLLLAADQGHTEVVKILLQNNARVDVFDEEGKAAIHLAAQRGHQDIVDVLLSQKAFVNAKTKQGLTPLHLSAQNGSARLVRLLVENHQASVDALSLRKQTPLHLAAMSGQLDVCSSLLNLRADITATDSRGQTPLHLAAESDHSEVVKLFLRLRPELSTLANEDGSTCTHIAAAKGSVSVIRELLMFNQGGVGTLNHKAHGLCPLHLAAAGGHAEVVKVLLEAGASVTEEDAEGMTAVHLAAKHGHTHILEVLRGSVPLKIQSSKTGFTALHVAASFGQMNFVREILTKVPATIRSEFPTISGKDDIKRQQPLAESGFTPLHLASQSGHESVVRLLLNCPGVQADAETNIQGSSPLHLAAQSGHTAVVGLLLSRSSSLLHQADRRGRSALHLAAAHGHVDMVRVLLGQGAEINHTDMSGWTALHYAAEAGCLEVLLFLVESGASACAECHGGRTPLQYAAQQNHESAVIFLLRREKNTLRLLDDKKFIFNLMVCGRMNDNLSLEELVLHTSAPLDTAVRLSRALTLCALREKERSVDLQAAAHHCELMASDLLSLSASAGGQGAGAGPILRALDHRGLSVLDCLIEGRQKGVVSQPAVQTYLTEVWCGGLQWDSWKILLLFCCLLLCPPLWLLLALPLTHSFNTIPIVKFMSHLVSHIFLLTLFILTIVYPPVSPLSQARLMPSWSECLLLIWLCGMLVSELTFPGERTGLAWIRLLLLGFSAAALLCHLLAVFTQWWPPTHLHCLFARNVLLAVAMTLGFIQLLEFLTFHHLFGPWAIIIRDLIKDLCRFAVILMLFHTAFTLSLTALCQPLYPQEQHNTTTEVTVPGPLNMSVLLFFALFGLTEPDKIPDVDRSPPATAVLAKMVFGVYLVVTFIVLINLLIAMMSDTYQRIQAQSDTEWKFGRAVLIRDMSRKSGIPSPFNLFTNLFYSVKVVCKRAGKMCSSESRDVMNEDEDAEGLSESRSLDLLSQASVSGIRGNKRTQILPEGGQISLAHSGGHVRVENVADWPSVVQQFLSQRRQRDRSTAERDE
Sequence of Signal transducer and activator of transcription 3 (P40763 whole entry): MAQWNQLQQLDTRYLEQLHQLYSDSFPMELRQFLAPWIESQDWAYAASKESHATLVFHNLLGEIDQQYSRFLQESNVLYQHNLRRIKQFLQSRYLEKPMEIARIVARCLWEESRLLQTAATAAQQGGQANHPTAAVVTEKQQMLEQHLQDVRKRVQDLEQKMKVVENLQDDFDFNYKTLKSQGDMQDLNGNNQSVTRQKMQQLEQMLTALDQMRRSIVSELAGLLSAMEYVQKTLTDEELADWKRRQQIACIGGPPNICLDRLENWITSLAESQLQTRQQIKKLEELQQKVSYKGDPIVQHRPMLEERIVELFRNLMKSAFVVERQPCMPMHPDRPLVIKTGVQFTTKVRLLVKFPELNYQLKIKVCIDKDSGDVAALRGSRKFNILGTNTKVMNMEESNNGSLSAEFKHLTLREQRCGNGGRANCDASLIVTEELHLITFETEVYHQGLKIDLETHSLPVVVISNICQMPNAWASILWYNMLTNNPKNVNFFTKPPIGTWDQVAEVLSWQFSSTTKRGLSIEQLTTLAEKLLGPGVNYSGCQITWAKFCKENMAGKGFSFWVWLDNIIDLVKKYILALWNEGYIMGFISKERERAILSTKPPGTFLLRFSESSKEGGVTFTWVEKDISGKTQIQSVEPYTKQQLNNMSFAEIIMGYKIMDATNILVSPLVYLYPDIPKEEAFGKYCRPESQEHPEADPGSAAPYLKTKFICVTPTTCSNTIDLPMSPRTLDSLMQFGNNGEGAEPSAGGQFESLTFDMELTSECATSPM

Cc1sc2ncnc(N3CCC(C(=O)c4ccccc4)CC3)c2c1C
IC50 [1]: 5.21 µM (active) | IC50 [2]: > 55.7 µM (inactive)

Cc1[nH]nc(-c2ccc(O)cc2O)c1-c1ccc(Br)cc1
EC50 [3]: > 32 µM (inactive) | EC50 (Cannabinoid receptor 1 [4]): > 32 µM (inactive) | IC50 [5]: > 32 µM (inactive) | IC50 (Cannabinoid receptor 1 [6]): 0.981 µM (active) | IC50 [7]: 5.4 µM (active) | IC50 (Cannabinoid receptor 2 [8]): 9.2 µM (active) | EC50 (Cannabinoid receptor 2 [9]): > 32 µM (inactive)

CCOC(=O)C1C(c2ccc3c(c2)OCO3)NC(=O)NC1(O)C(F)(F)F (centres undefined)
EC50 (Ion channel NompC): > 29.9 µM (inactive) | EC50 (Mucolipin-3): > 29.9 µM (not active)

CN(C)C(=O)c1cc(-c2cc(F)c(Cl)cc2Cl)n[nH]1
IC50 [10]: > 100 µM (not active) | IC50 [11]: > 100 µM (inactive)

O=c1c2cccnc2sn1-c1ccccc1
IC50 (Hexokinase): 2.27 µM (active)

CCOC(=O)c1c(-n2c(C)cc(/C=C3\C(=O)NC(=O)N(C)C3=O)c2C)sc2c1CCCC2
EC50 [12]: > 49.8 µM (inactive) | EC50 [13]: > 49.8 µM (not active)

O=C1Nc2ccccc2C12Nc1ccccc1S2 (centres undefined)
IC50 [14]: 8.95 µM (active) | IC50 [15]: 28.2 µM (active)

Cc1ccc(OCC(=O)Nc2ccc(Cl)cc2F)c([N+](=O)[O-])n1
EC50 [16]: > 50 µM (inactive)

COC(=O)CSc1nc(N)c2c3c(sc2n1)C(c1ccccc1)SC(c1ccccc1)C3 (centres undefined)
CC50 [17]: > 50 µM (active) | EC50 (BJ [18]): 8.88 µM (inconclusive) | EC50 (BJ [19]): > 150 µM (inconclusive) | EC50 [20]: 14.2 µM (active) | EC50 [21]: 14.4 µM (active) | EC50 (BJ [22]): 17.1 µM (inconclusive) | EC50 [23]: 11.4 µM (active) | AC50 (CAAX prenyl protease 2): 13.8 µM (active) | AC50 [24]: > 380 µM (inactive) | EC50 (Protein RecA): > 380 µM (inactive)
